Assay results from patent publication US9844566B2, “Pharmaceutical composition for the preparation of infusion solutions of antimicrobial preparations, its production process (variations)” (priority 2011, dated 2017).

Tests used:
Type in all cases: in vivo
[1] = tested on: Escherichia coli (ATCC No25922 F-50); assay: Experimental sepsis model in mice, E. coli: survival on the seventh day; conditions: for Mice survival rate on the 7th day of infection, E. coli: mice infected i.v. 8×10^8 CFU/mouse, i.v. treatment daily for 3 days; for Mice survival on the 7th day, absolute values (survival rate/infected animals), E. coli: survivors/infected mice
Protocol: (§1) Determination of therapeutic efficiency of antimicrobial agents was done on experimental models of sepsis and methods for statistical treatment of the obtained results (χ^2) according to [R19 and R20].
(§2) Microgerms. Staphylococcus aureus (ATCC No 25923 F-49), Escherichia coli (ATCC No25922 F-50), Pseudomonas aeruginosa (ATCC No 27853 F-51), Candida albicans (ATCC No 24433).
(§3) Animals. The experiments were carried out on hybrid mice (CBA×C57Black/6)CBF1 according to the “Regulations for test animals use” (USSR Ministry of health, order supplement No 755 from Dec. 8, 1977).
(§4) Experimental sepsis models. Tested mice were injected intravenously 0.8 ml of P. aeruginosa daily culture suspension with a dosage 5×10^8 CFU/mouse or S. aureus daily culture suspension with a dosage 10^10 CFU/mouse or E. coli daily culture suspension with a dosage 8×10^8 CFU/mouse or Candida albicans daily culture suspension with a dosage 10^10 CFU/mouse. Mice of a control group were injected the 0.9% solution of NaCl or 5% dextrose solution in the volume of 0.8 ml.
(§5) In a day after being infected, during 3 days, the tested mice were daily intravenously injected with the indicated above antimicrobial preparations, dissolved in 0.9% solution of NaCl or in 5% dextrose solution, as well as their solutions prepared based on the pharmaceutical composition (as described hereinabove).
(§6) All beta-lactams were injected daily in the amount of 0.2 mg/mouse, amikacin sulfate in the amount of 2 mg/mouse daily, vancomycin in the amount of 1 mg/mouse daily, fosfomycin in the amount of 2 mg/mouse daily, and voriconazole in the amount of 0.1 mg/mouse contained in 0.5 ml of solution. Following the same order, the control group was injected with 0.9% NaCl solution or 5% dextrose solution, as well as water solutions of the pharmaceutical composition in the volume of 0.5 ml.
(§7) The antibacterial therapy efficiency was evaluated based on the number of surviving mice on the seventh day after being infected [R19, R20].
(§8) The obtained data shown in Tables 3 and 4 reflect the results of three independent experiments (at least 30 test animals were used for research of each inventive pharmaceutical preparation).

[2] = tested on: Staphylococcus aureus (ATCC No 25923 F-49); assay: Experimental sepsis model in mice, S. aureus: survival on the seventh day; conditions: for Mice survival rate on the 7th day of infection, S. aureus: mice infected i.v. 10^10 CFU/mouse, i.v. treatment daily for 3 days; for Mice survival on the 7th day, absolute values (survival rate/infected animals), S. aureus: survivors/infected mice
Protocol: as §1, §2, §3, §4, §5, §6, §7, §8

[3] = tested on: Pseudomonas aeruginosa (ATCC No 27853 F-51); assay: Experimental sepsis model in mice, P. aeruginosa: survival on the seventh day; conditions: for Mice survival rate on the 7th day of infection, P. aeruginosa: mice infected i.v. 5×10^8 CFU/mouse, i.v. treatment daily for 3 days; for Mice survival on the 7th day, absolute values (survival rate/infected animals), P. aeruginosa: survivors/infected mice
Protocol: as §1, §2, §3, §4, §5, §6, §7, §8

[4] = tested on: Candida albicans (ATCC No 24433); assay: Experimental mycotic sepsis model in mice, Candida albicans: survival on the seventh day; conditions: for Mice survival rate on the 7th day of infection, Candida albicans: mice infected i.v. 10^10 CFU/mouse, i.v. treatment daily for 3 days; for Mice survival on the 7th day, absolute values (survival rate/infected animals), Candida albicans: survivors/infected mice
Protocol: as §1, §2, §3, §4, §5, §6, §7, §8

[5] = Table 3 (0.9% NaCl or NaCl:Colloidal silica)
[6] = Table 4 (5% dextrose or Dextrose:Colloidal silica)

Compound	Mice survival rate on the 7th day of infection, E. coli [1, 5]	Mice survival on the 7th day, absolute values (survival rate/infected animals), E. coli [1, 5]	Mice survival rate on the 7th day of infection, E. coli [1, 6]	Mice survival on the 7th day, absolute values (survival rate/infected animals), E. coli [1, 6]	Mice survival rate on the 7th day of infection, S. aureus [2, 5]	Mice survival on the 7th day, absolute values (survival rate/infected animals), S. aureus [2, 5]	Mice survival rate on the 7th day of infection, S. aureus [2, 6]	Mice survival on the 7th day, absolute values (survival rate/infected animals), S. aureus [2, 6]	Mice survival rate on the 7th day of infection, P. aeruginosa [3, 5]	Mice survival on the 7th day, absolute values (survival rate/infected animals), P. aeruginosa [3, 5]	Mice survival rate on the 7th day of infection, P. aeruginosa [3, 6]	Mice survival on the 7th day, absolute values (survival rate/infected animals), P. aeruginosa [3, 6]	Mice survival rate on the 7th day of infection, Candida albicans [4, 5]	Mice survival on the 7th day, absolute values (survival rate/infected animals), Candida albicans [4, 5]	Mice survival rate on the 7th day of infection, Candida albicans [4, 6]	Mice survival on the 7th day, absolute values (survival rate/infected animals), Candida albicans [4, 6]
NCC[C@H](O)C(=O)N[C@@H]1C[C@H](N)[C@@H](O[C@H]2O[C@H](CN)[C@@H](O)[C@H](O)[C@H]2O)[C@H](O)[C@H]1O[C@H]1O[C@H](CO)[C@@H](O)[C@H](N)[C@H]1O.O=S(=O)(O)O.O=S(=O)(O)O [Amikacin sulfate/0.9% NaCl solution, amikacin sulfate]	48.3%	(15/31)	46.7%	(14/30)	–	–	–	–	–	–	–	–	–	–	–	–
CC[C@H]1OC(=O)[C@H](C)[C@@H](O[C@H]2C[C@@](C)(OC)[C@@H](O)[C@H](C)O2)[C@H](C)[C@@H](O[C@@H]2O[C@H](C)C[C@H](N(C)C)[C@H]2O)[C@](C)(O)C[C@@H](C)CN(C)[C@H](C)[C@@H](O)[C@]1(C)O [Azithromycin/0.9% NaCl solution, azithromycin]	–	–	–	–	43.3%	(13/30)	43.3%	(13/30)	–	–	–	–	–	–	–	–
CO/N=C(\C(=O)N[C@@H]1C(=O)N2C(C(=O)[O-])=C(C[N+]3(C)CCCC3)CS[C@H]12)c1csc(N)n1 [Cefepime/0.9% NaCl solution, cefepime]	58.1%	(18/31)	54.4%	(17/31)	46.7%	(14/30)	56.7%	(17/30)	51.6%	(16/31)	50.0%	(15/30)	–	–	–	–
CO/N=C(\C(=O)N[C@@H]1C(=O)N2C(C(=O)O)=C(COC(C)=O)CS[C@H]12)c1csc(N)n1 [Cefotaxime/0.9% NaCl solution, cefotaxime]	37.5%	(12/32)	43.7%	(14/32)	43.7%	(14/32)	42.8%	(15/35)	–	–	–	–	–	–	–	–
CC(C)(O/N=C(\C(=O)N[C@@H]1C(=O)N2C(C(=O)[O-])=C(C[n+]3ccccc3)CS[C@H]12)c1csc(N)n1)C(=O)O [Ceftazidime/0.9% NaCl solution, ceftazidime]	48.4%	(15/31)	53.3%	(16/30)	38.7%	(12/31)	40.0%	(12/30)	46.7%	(14/30)	46.8%	(15/32)	–	–	–	–
C[C@@H]1O[C@@H]1P(=O)(O)O [Fosfomycin/0.9% NaCl solution, fosfomycin]	43.3%	(13/30)	46.7%	(14/30)	36.7%	(11/30)	43.7%	(14/32)	30.0%	(9/30)	35.2%	(15/34)	–	–	–	–
C[C@@H](O)[C@H]1C(=O)N2C(C(=O)O)=C(S[C@@H]3CN[C@H](C(=O)N(C)C)C3)[C@H](C)[C@H]12 [Meropenem/0.9% NaCl solution, meropenem]	73.8%	(31/42)	78.0%	(32/41)	70.9%	(22/31)	73.8%	(31/42)	71.8%	(23/32)	74.4%	(32/43)	–	–	–	–
CN[C@H](CC(C)C)C(=O)N[C@H]1C(=O)N[C@@H](CC(N)=O)C(=O)N[C@H]2C(=O)N[C@H]3C(=O)N[C@H](C(=O)N[C@H](C(=O)O)c4cc(O)cc(O)c4-c4cc3ccc4O)[C@H](O)c3ccc(c(Cl)c3)Oc3cc2cc(c3O[C@@H]2O[C@H](CO)[C@@H](O)[C@H](O)[C@H]2O[C@H]2C[C@](C)(N)[C@H](O)[C@H](C)O2)Oc2ccc(cc2Cl)[C@H]1O [Vancomycin/0.9% NaCl solution, vancomycin]	–	–	–	–	71.4%	(30/42)	77.5%	(31/40)	–	–	–	–	–	–	–	–
aztreonam [Aztreonam/0.9% NaCl solution]	70.0%	(21/30)	–	–	–	–	–	–	67.7%	(21/31)	–	–	–	–	–	–
ceftriaxone [Ceftriaxone/5% dextrose solution]	–	–	45.2%	(14/31)	–	–	40.6%	(13/32)	–	–	–	–	–	–	–	–
voriconazole [Voriconazole/0.9% NaCl solution]	–	–	–	–	–	–	–	–	–	–	–	–	45.1%	(14/31)	46.7%	(14/30)
